The values that follow come from paper PMC5716993, “The interdomain flexible linker of the polypeptide GalNAc transferases dictates their long-range glycosylation preferences” (Nature Communications, 2017).

What all share (assay type): biochemical
For assay [1], the target named is T1, GalNAc-T2-t4Flexible linker (Chimera 3) (Homo sapiens, UniProt Q10471, A446W/D441E/D444P/E436N/F447H/H442D/I445G/Q443R/R438H).
T1 construct: made in house; host or cells: Pichia pastoris SMD1168 (pPICZαA)
The experiment in a line: Transferase assay / Michaelis-Menten kinetics of GalNAc-T2 chimera 3. Conditions: for Vmax / Km: Chimera 3 (0.02 µM), pH 6.5 cacodylate, 37 °C, 0.25 mM UDP-[3H]-GalNAc, Michaelis-Menten fit, ± standard deviation; for Vmax: 10 mM MnCl2; for Catalytic efficiency (Vmax/Km): Chimera 3, errors estimated from the largest percent error of Vmax or Km. On the procedure: (§1) Specific activity determinations: GalNAc-T glycosylation reactions against (glyco)peptides 1–3 were performed with 75 mM sodium cacodylate, pH 6.5, 1 mM 2-mercaptoethanol, 10 mM MnCl2, 0.25 mM [^3H]-radiolabeled UDP-GalNAc (~6 × 10^8 DPM/µmole, American Radiolabeled Chemicals Inc.), and 1.4 mM (~1.25 mg/ml) of (glyco)peptide (from 4 mM stock in 1 mM TRIS, pH ~7) and varying concentrations (0.01 to 0.5 µM) of transferase (determined by OD280), giving a final reaction volumes of 20 µl in 100 µl capped Eppendorf tubes. Reactions were incubated at 37 °C in a thermostated microplate shaker (Taitec Microincubator M-36) and quenched at the appropriate reaction time by the addition of 20 µl of 250 mM EDTA and placed on ice prior to final workup. Typically, for each transferase, glycosylation reactions were performed at the same time with all three (glyco)peptide substrates (including a no peptide control) using the same batch of transferase and the same UDP-[^3H]-GalNAc stock. Before performing time course experiments, the relative activity of each transferase was determined by trial and error against all three peptides to determine the optimal transferase concentration or incubation time that gave no more than 10% peptide glycosylation against the best substrate. Final time course experiments typically consisted of incubation times of 10, 20, and 30, or 30, 60, and 90 or 120 min (depending on activity) and were performed at least twice. Most transferases were also characterized at two different enzyme concentrations (0.01–0.03 and 0.2–0.5 µM) and the results combined. After quenching the reaction and diluting to 4 ml, free UDP and non-hydrolyzed UDP-GalNAc were removed by passage over a Dowex 1 × 8 anion exchange resin (~3 ml column). Total UDP-[^3H]-GalNAc utilization (transfer to peptide substrate and transfer to water, i.e, hydrolysis) was determined by difference after scintillation counting (Beckman LS5801 scintillation counter) 1/20 of the sample before and after passage over Dowex 1 × 8. The extent of [^3H]-GalNAc transfer to peptide and the extent of hydrolysis was determined by Sephadex G10 gel filtration analysis, typically for the longest reaction time point, as previously described. Example gel filtration chromatograms are given in Supplementary Fig. 12. Significant hydrolysis was only observed for GalNAc-T4, which was corrected for in determining its specific activity. Specific activity was obtained by calculating at each individual data time point (of the combined time course plots, Fig. 4b), an individual-specific activity, which was then averaged to obtain the overall average specific activity (and standard deviation). Specific activity is reported as nmol of glycopeptide product formed per min, per pmol of enzyme. Substrate activity ratios (i.e., substrate ratios 2/1, 3/1, and 3/2) were also obtained at each individual time point and averaged (with standard deviation). […] Note that the Microsoft Excel least squares fitting function LINEST was used to obtain the linear plots shown in Fig. 4b while fixing the y intercept to zero. Note that the specific activity calculated from the least square slope differed slightly (less than 10%) from that determined from the average of the individual time points.
(§2) Detailed enzyme kinetics on GalNAc-T4, GalNAc-T2, the GalNAc-T2 triple mutant and GalNAc-T2 chimera 3: Glycosylation reactions were performed as described above using a fixed enzyme concentration (0.06 µM for GalNAc-T4, and 0.02 µM for GalNAc-T2 and its linker constructs) with varying peptide concentrations (typically 45, 90, 180, 350, 700, 1400, and 2000 μM). Incubation times (10–90 min) were chosen such that no more than 30% of the UDP-GalNAc donor was depleted while typically giving less than 10% peptide glycosylation, after correction for UDP-GalNAc hydrolysis described above. Specific activities were obtained from one to two individual incubation time points performed in two–three separate experiments. […]

The target in assay [2] is T2, GalNAc-T2 (Homo sapiens, UniProt Q10471).
T2 construct: the previous reported template pPICZαAgalnact2 (K75-Q571); made in house; host or cells: Pichia pastoris (pPICZαA)
The experiment in a line: Transferase assay / Michaelis-Menten kinetics of GalNAc-T2. Conditions: for Vmax / Km: GalNAc-T2 (0.02 µM), pH 6.5 cacodylate, 37 °C, 0.25 mM UDP-[3H]-GalNAc, Michaelis-Menten fit (1/y weighting), ± standard deviation; for Vmax: 10 mM MnCl2, scintillation counting; for Catalytic efficiency (Vmax/Km): errors estimated from the largest percent error of Vmax or Km. How it is done: as §1, §2

The subject of assay [3] is GalNAc-T2 chimera 1 and 2. The experiment in a line: Specific activity of GalNAc-T2 chimera 1 and 2. Conditions: 1.4 mM, in words. On the procedure: (§3) Specific activity determinations: GalNAc-T glycosylation reactions against (glyco)peptides 1–3 were performed with 75 mM sodium cacodylate, pH 6.5, 1 mM 2-mercaptoethanol, 10 mM MnCl2, 0.25 mM [^3H]-radiolabeled UDP-GalNAc (~6 × 10^8 DPM/µmole, American Radiolabeled Chemicals Inc.), and 1.4 mM (~1.25 mg/ml) of (glyco)peptide (from 4 mM stock in 1 mM TRIS, pH ~7) and varying concentrations (0.01 to 0.5 µM) of transferase (determined by OD280), giving a final reaction volumes of 20 µl in 100 µl capped Eppendorf tubes. […] Before performing time course experiments, the relative activity of each transferase was determined by trial and error against all three peptides to determine the optimal transferase concentration or incubation time that gave no more than 10% peptide glycosylation against the best substrate. […] Total UDP-[^3H]-GalNAc utilization (transfer to peptide substrate and transfer to water, i.e, hydrolysis) was determined by difference after scintillation counting (Beckman LS5801 scintillation counter) 1/20 of the sample before and after passage over Dowex 1 × 8. The extent of [^3H]-GalNAc transfer to peptide and the extent of hydrolysis was determined by Sephadex G10 gel filtration analysis, typically for the longest reaction time point, as previously described. […]

The target in assay [4] is T3, GalNAc-T4 (Homo sapiens, UniProt Q8N4A0).
T3 construct: amino acid residues 36–578 of the human GalNAc-T4; histidine tag (C); made in house; host or cells: Pichia pastoris SMD1168 (pPICZαA, secreted)
The experiment in a line: Transferase assay / Michaelis-Menten kinetics of GalNAc-T4. The conditions noted are these: for Activity of GalNAc-T4 on peptide / glycosylation: over a range of peptide concentrations, in words; for Activity of GalNAc-T4 on peptide / glycosylation / Catalytic efficiency (Vmax/Km): GalNAc-T4. How it is done: as §1, §2

Assay [5] has as its system GalNAc-T2 chimeras 1–3. The experiment in a line: Specific activity / glycosylation preference of GalNAc-T2 chimeras 1-3. The conditions noted are these: in words. On the procedure:
as §3

Entries after “also recorded” stand apart in the source; their conditions may differ.

T3 sequence (Q8N4A0 36-578): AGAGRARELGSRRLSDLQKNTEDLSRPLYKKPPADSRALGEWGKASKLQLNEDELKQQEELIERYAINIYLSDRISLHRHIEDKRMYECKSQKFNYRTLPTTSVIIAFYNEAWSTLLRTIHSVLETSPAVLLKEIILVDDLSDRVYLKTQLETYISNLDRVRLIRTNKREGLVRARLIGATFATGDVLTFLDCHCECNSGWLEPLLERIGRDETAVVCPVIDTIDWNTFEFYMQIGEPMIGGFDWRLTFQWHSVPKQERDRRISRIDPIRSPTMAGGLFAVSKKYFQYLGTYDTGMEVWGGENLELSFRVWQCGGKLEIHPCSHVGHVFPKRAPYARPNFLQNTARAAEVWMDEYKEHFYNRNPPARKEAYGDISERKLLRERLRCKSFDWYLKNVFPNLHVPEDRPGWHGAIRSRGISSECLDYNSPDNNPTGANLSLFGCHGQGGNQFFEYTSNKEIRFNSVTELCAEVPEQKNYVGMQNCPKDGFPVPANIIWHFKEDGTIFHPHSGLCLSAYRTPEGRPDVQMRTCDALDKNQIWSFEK
T2 sequence (Q10471 75-571): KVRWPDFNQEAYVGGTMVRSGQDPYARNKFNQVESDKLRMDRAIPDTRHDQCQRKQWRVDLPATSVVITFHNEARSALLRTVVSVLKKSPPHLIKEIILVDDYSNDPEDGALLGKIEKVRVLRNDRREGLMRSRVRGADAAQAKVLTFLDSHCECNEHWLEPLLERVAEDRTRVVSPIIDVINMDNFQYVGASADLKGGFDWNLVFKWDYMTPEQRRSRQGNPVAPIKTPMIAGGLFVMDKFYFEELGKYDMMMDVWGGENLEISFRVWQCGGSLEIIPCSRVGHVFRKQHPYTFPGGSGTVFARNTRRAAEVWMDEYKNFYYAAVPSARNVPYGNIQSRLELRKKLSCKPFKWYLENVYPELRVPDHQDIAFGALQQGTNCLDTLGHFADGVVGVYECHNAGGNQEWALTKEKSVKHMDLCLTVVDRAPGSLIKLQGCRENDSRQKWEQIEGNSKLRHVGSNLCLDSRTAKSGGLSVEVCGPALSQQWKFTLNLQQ
T1 sequence (Q10471 75-571 E436N/R438H/D441E/H442D/Q443R/D444P/I445G/A446W/F447H): as the sequence (Q10471 75-571) above, with E362N, R364H, D367E, H368D, Q369R, D370P, I371G, A372W, F373H counted along it

By Km is commonly meant the substrate concentration at which the rate is half of its maximum. In the case of “AGAGTTPGPGAGAT*GA [Peptide 2, monoglycopeptide …*GA, T* denotes the Thr-O-GalNAc moiety]”, the results for the Vmax in assay [1] and in assay [2] were 1.35 ± 0.11 mM/(nmole*min) and 3.12 ± 0.07 mM/(nmole*min), respectively. Besides, the Km in assay [1] was 700 ± 140 µM; in assay [2], 180 ± 10 µM. The results for the “Catalytic efficiency (Vmax/Km)” value in assay [1] and in assay [2] (GalNAc-T2) were 1.93 ± 0.8 nmol/min and 17.0 ± 2.3 nmol/min, respectively. The “change in kinetic parameters (Vmax, Km)” value in assay [1] (chimera 3, in words) was “changes in Vmax and Km”. Moreover, the “increase in catalytic efficiency for monoglycopeptide 2 over monoglycopeptide 3” value in assay [2] (GalNAc-T2, ratio 2 over 3) is “over threefold”. In assay [2] (GalNAc-T2, ratio, in words), the “Km of monoglycopeptide 2 compared to monoglycopeptide 3” value is given as “~ fourfold lower”. In assay [2] (in words), the “substrate preference of GalNAc-T2, higher substrate concentrations” value is on record as “nearly equal preferences”. Moreover, the “substrate preference of GalNAc-T2, low substrate concentrations” value in assay [2] (low substrate concentrations, in words) is given as “high preference for monoglycopeptide 2 at low substrate concentrations”. For the same substance, the “specific activity against monoglycopeptide 2, change” value in assay [3] is recorded as “decrease in the observed specific activity”. Besides, the “Activity of GalNAc-T4 on peptide / glycosylation” value in assay [4] was “imperceptibly glycosylated; also recorded: too low to determine their kinetic constants; also recorded: largely unglycosylated”.
With “GAT*GAGAGAGTTPGPG [Peptide 3, monoglycopeptide GAT*…, T* denotes the Thr-O-GalNAc moiety]”, the Vmax is on record as 3.69 ± 0.29 mM/(nmole*min) in assay [1]; 3.79 ± 0.34 mM/(nmole*min) in assay [2]; 3.09± 0.25 mM/(nmole*min) in assay [4] (Supplementary Table 2, GalNAc-T4 (0.06 µM), pH 6.5 cacodylate, 37 °C, 0.25 mM UDP-[3H]-GalNAc, 10 mM MnCl2, corrected for UDP-GalNAc hydrolysis, ± standard deviation). In addition, the Km is 990 ± 160 µM in assay [1]; 750 ± 130 µM in assay [2]; about 40 µM in assay [4] (Fig. 2a and text, GalNAc-T4 (0.06 µM), Michaelis-Menten fit); 41 ± 18 µM in assay [4] (Supplementary Table 2, GalNAc-T4 (0.06 µM), pH 6.5 cacodylate, 37 °C, 0.25 mM UDP-[3H]-GalNAc, ± standard deviation). The “Catalytic efficiency (Vmax/Km)” value in assay [1] is 3.73 ± 1.2 nmol/min; in assay [2] (GalNAc-T2), 5.03 ± 1.8 nmol/min; in assay [4] (Fig. 2a and text) it was ~ 75 (nmole min)^−1; in assay [4] (Supplementary Table 2, errors estimated from the largest percent error of Vmax or Km), 75.2 ± 34 nmol/min. Moreover, in assay [2] (in words), the “substrate preference of GalNAc-T2, higher substrate concentrations” value was “nearly equal preferences”. Also, the “Activity of GalNAc-T4 on peptide / glycosylation” value in assay [4] is given as “glycosylated selectively”. Further, in assay [5], the “specific activity and kinetic parameters against monoglycopeptide 3, change” value was “remained relative constant”.
